Counter-ions that a name gives are not always drawn. Like-named read-outs stand apart in the source and are kept apart here.
What was measured:
[1] = system: recombinant NL4-3 virus (nef section replaced with Renilla luciferase gene) in MT-2 cells; assay: whole plant or invertebrate; assay type: cell-based, HIV
In short: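 Nef-deleted NL4-3 reporter virus carrying Renilla luciferase was used to infect MT-2 cells in the presence of serial compound dilutions. After 4-5 days of infection, antiviral activity was quantified from luciferase activity using a live-cell substrate.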

[2] = Compound cytotoxicity (CC50), XTT-based colorimetric assay; assay type: cell-based; conditions: human; uninfected MT2 cells, day 4, XTT assay
In short: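 Run under the antiviral-assay protocol but without virus. Viability was read on day 4 and CC50 values were derived from the readout.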

[3] = NL43, luciferase activity in MT-2 cells infected 4-5 days with recombinant NL4-3 virus, read-out: Activity
[4] = NL43, luciferase activity in MT-2 cells infected 4-5 days with recombinant NL4-3 virus, read-out: EC50

Structure (SMILES)	EC50 [1, 3]	CC50 at 4 day [2]	EC50 [1, 4]	EC50 ([1]; NL43)	EC50 ([1]; NL43, read-out: Activity)
COC(=O)Nc1ccc(-c2cccnc2[C@H](Cc2cc(F)cc(F)c2)NC(=O)NS(=O)(=O)c2ccccc2Cl)cc1 [Example 91, (S)-methyl (4-(2-(1-(3-((2-chlorophenyl)sulfonyl)ureido)-2-(3,5-difluorophenyl)ethyl)pyridin-3-yl)phenyl)carbamate, TFA]	100 to 1000 nM	> 100000 nM	–	–	–
O=C(N[C@@H](Cc1cc(F)cc(F)c1)c1ncccc1-c1ccc2ccncc2c1)NS(=O)(=O)c1ccccc1Cl [Example 92, (S)-2-chloro-N-((2-(3,5-difluorophenyl)-1-(3-(isoquinolin-7-yl)pyridin-2-yl)ethyl)carbamoyl)benzenesulfonamide, 2 TFA]	100 to 1000 nM	> 100000 nM	–	–	–
CCOc1ccc(-c2cccnc2C(Cc2ccccc2)NC(=O)NS(=O)(=O)c2ccccc2C)cc1 (centres unmarked) [Example 93, N-((1-(3-(4-ethoxyphenyl)pyridin-2-yl)-2-phenylethyl)carbamoyl)-2-methylbenzenesulfonamide]	100 to 1000 nM	> 100000 nM	420 nM	–	–
CCOc1ccc(-c2cccnc2[C@H](Cc2cc(F)cc(F)c2)NC(=O)NS(=O)(=O)c2ccccc2C)cc1 [Example 94, (S)-N-((2-(3,5-difluorophenyl)-1-(3-(4-ethoxyphenyl)pyridin-2-yl)ethyl)carbamoyl)-2-methylbenzenesulfonamide, TFA]	100 to 1000 nM	> 100000 nM	–	–	–
NC(=O)c1cc(-c2cccnc2[C@H](Cc2cc(F)cc(F)c2)NC(=O)NS(=O)(=O)c2ccccc2Cl)ccc1F [Example 95, (S)-5-(2-(1-(3-((2-chlorophenyl)sulfonyl)ureido)-2-(3,5-difluorophenyl)ethyl)pyridin-3-yl)-2-fluorobenzamide, TFA]	100 to 1000 nM	> 100000 nM	–	–	–
COc1ccc(-c2cccnc2[C@H](Cc2cc(F)cc(F)c2)NC(=O)NS(=O)(=O)c2ccccc2C)cc1 [Example 96, (S)-N-((2-(3,5-difluorophenyl)-1-(3-(4-methoxyphenyl)pyridin-2-yl)ethyl)carbamoyl)-2-methylbenzenesulfonamide, TFA]	100 to 1000 nM	> 33000 nM	590 nM	–	–
Cc1ccccc1S(=O)(=O)NC(=O)N[C@@H](Cc1cc(F)cc(F)c1)c1ncccc1-c1ccc(F)c(C(N)=O)c1 [Example 97, (S)-5-(2-(2-(3,5-difluorophenyl)-1-(3-(o-tolylsulfonyl)ureido)ethyl)pyridin-3-yl)-2-fluorobenzamide, TFA]	100 to 1000 nM	> 100000 nM	–	–	–
Cc1ccccc1S(=O)(=O)NC(=O)NC(Cc1ccccc1)c1ncccc1-c1ccc(F)c(C(N)=O)c1 (centres unmarked) [Example 98, 2-fluoro-5-(2-(2-phenyl-1-(3-(o-tolylsulfonyl)ureido)ethyl)pyridin-3-yl)benzamide, TFA]	100 to 1000 nM	> 33000 nM	–	–	–
O=C(N[C@H](Cc1cc(F)cc(F)c1)c1ncccc1-c1ccc2ccncc2c1)NS(=O)(=O)c1ccccc1Cl [Example 99, (R)-2-chloro-N-((2-(3,5-difluorophenyl)-1-(3-(isoquinolin-7-yl)pyridin-2-yl)ethyl)carbamoyl)benzenesulfonamide, 2 TFA]	–	> 33000 nM	–	1060 nM	> 1000 nM
Cc1ccccc1S(=O)(=O)NC(=O)N[C@@H](Cc1cc(F)cc(F)c1)c1ncccc1-c1cncc(F)c1 [Example 100, (S)-N-((2-(3,5-difluorophenyl)-1-(5′-fluoro-[3,3′-bipyridin]-2-yl)ethyl)carbamoyl)-2-methylbenzenesulfonamide, 2 TFA]	> 1000 nM	> 100000 nM	–	–	–
CC(C)(C)OC(=O)n1cc(-c2cccnc2[C@@H](Cc2cc(F)cc(F)c2)NC(=O)NS(=O)(=O)c2ccccc2Cl)c2ccccc21 [Example 101, (R)-tert-butyl 3-(2-(1-(3-((2-chlorophenyl)sulfonyl)ureido)-2-(3,5-difluorophenyl)ethyl)pyridin-3-yl)-1H-indole-1-carboxylate, TFA]	> 1000 nM	36000 nM	–	–	–
O=C(N[C@H](Cc1cc(F)cc(F)c1)c1ncccc1-c1c[nH]c2ccccc12)NS(=O)(=O)c1ccccc1Cl [Example 102, (R)-N-((1-(3-(1H-indol-3-yl)pyridin-2-yl)-2-(3,5-difluorophenyl)ethyl)carbamoyl)-2-chlorobenzenesulfonamide, 2 TFA]	> 1000 nM	> 33000 nM	11500 nM	–	–
Cc1ccccc1S(=O)(=O)NC(=O)N[C@H](Cc1cc(F)cc(F)c1)c1ncccc1-c1cncc(F)c1 [Example 103, (R)-N-((2-(3,5-difluorophenyl)-1-(5′-fluoro-[3,3′-bipyridin]-2-yl)ethyl)carbamoyl)-2-methylbenzenesulfonamide, 2 TFA]	> 1000 nM	> 100000 nM	–	–	–
Cc1cc(-c2cccnc2[C@@H](Cc2cc(F)cc(F)c2)NC(=O)NS(=O)(=O)c2ccccc2Cl)c(C)s1 [Example 104, (R)-2-chloro-N-((2-(3,5-difluorophenyl)-1-(3-(2,5-dimethylthiophen-3-yl)pyridin-2-yl)ethyl)carbamoyl)benzenesulfonamide, TFA]	> 1000 nM	> 33000 nM	–	–	–
CCOc1ccc(-c2cccnc2[C@@H](Cc2ccccc2)NC(=O)NS(=O)(=O)c2ccccc2C)cc1 [Example 105, (R)-N-((1-(3-(4-ethoxyphenyl)pyridin-2-yl)-2-phenylethyl)carbamoyl)-2-methylbenzenesulfonamide, TFA]	> 1000 nM	75000 nM	16700 nM	–	–
O=C(N[C@H](Cc1cc(F)cc(F)c1)c1ncccc1-c1cccc(C(=O)NC2CC2)c1)NS(=O)(=O)c1ccccc1Cl [Example 106, (R)-3-(2-(1-(3-((2-chlorophenyl)sulfonyl)ureido)-2-(3,5-difluorophenyl)ethyl)pyridin-3-yl)-N-cyclopropylbenzamide, TFA]	> 1000 nM	> 100000 nM	–	–	–
Cc1ccccc1S(=O)(=O)NC(=O)N[C@H](Cc1cc(F)cc(F)c1)c1ncccc1Br [Example 107, (R)-N-((1-(3-bromopyridin-2-yl)-2-(3,5-difluorophenyl)ethyl)carbamoyl)-2-methylbenzenesulfonamide, TFA]	> 1000 nM	> 33000 nM	–	–	–
NC(=O)c1cc(-c2cccnc2[C@@H](Cc2cc(F)cc(F)c2)NC(=O)NS(=O)(=O)c2ccccc2Cl)ccc1F [Example 109, (R)-5-(2-(1-(3-((2-chlorophenyl)sulfonyl)ureido)-2-(3,5-difluorophenyl)ethyl)pyridin-3-yl)-2-fluorobenzamide, TFA]	> 1000 nM	> 100000 nM	–	–	–
O=C(N[C@H](Cc1cc(F)cc(F)c1)c1ncccc1-c1cncc(F)c1)NS(=O)(=O)c1ccccc1Cl [Example 110, (R)-2-chloro-N-((2-(3,5-difluorophenyl)-1-(5′-fluoro-[3,3′-bipyridin]-2-yl)ethyl)carbamoyl)benzenesulfonamide, TFA]	> 1000 nM	> 33000 nM	–	–	–
COC(=O)Nc1ccc(-c2cccnc2[C@@H](Cc2ccccc2)NC(=O)NS(=O)(=O)c2ccccc2Cl)cc1 [Example 111, (R)-methyl (4-(2-(1-(3-((2-chlorophenyl)sulfonyl)ureido)-2-phenylethyl)pyridin-3-yl)phenyl)carbamate, TFA]	> 1000 nM	82000 nM	30400 nM	–	–
Cc1ccccc1S(=O)(=O)NC(=O)N[C@H](Cc1ccccc1)c1ncccc1Br [Example 112, (R)-N-((1-(3-bromopyridin-2-yl)-2-phenylethyl)carbamoyl)-2-methylbenzenesulfonamide, TFA]	> 1000 nM	> 100000 nM	–	–	–
Cc1ccccc1S(=O)(=O)NC(=O)NC(Cc1ccccc1)c1ncccc1Br (centres unmarked) [Example 116, N-((1-(3-bromopyridin-2-yl)-2-phenylethyl)carbamoyl)-2-methylbenzenesulfonamide, TFA]	> 1000 nM	> 100000 nM	–	–	–
Cc1ccccc1S(=O)(=O)NC(=O)N[C@H](Cc1cc(F)cc(F)c1)c1ncccc1-c1ccc(F)c(C(N)=O)c1 [Example 117, (R)-5-(2-(2-(3,5-difluorophenyl)-1-(3-(o-tolylsulfonyl)ureido)ethyl)pyridin-3-yl)-2-fluorobenzamide, TFA]	> 1000 nM	> 100000 nM	8340 nM	–	–
COC(=O)Nc1ccc(-c2cccnc2C(Cc2ccccc2)NC(=O)NS(=O)(=O)c2ccccc2Cl)cc1 (centres unmarked) [Example 118, methyl (4-(2-(1-(3-((2-chlorophenyl)sulfonyl)ureido)-2-phenylethyl)pyridin-3-yl)phenyl)carbamate, TFA]	> 1000 nM	> 100000 nM	–	–	–
Cc1ccccc1S(=O)(=O)NC(=O)N[C@@H](Cc1cc(F)cc(F)c1)c1ncccc1-c1ccc2cn(C)nc2c1 [Example 119, (S)-N-((2-(3,5-difluorophenyl)-1-(3-(2-methyl-2H-indazol-6-yl)pyridin-2-yl)ethyl)carbamoyl)-2-methylbenzenesulfonamide, TFA]	100 to 1000 nM	58000 nM	–	–	–
Cc1ccccc1S(=O)(=O)NC(=O)N[C@@H](Cc1cc(F)cc(F)c1)c1ncccc1-c1ccc(CN(C)C)cc1 [Example 120, (S)-N-((2-(3,5-difluorophenyl)-1-(3-(4-((dimethylamino)methyl)phenyl)pyridin-2-yl)ethyl)carbamoyl)-2-methylbenzenesulfonamide, TFA]	100 to 1000 nM	> 100000 nM	360 nM	–	–
Cc1ccccc1S(=O)(=O)NC(=O)N[C@@H](Cc1cc(F)cc(F)c1)c1ncccc1-c1cccc(CO)c1 [Example 121, (S)-N-((2-(3,5-difluorophenyl)-1-(3-(3-(hydroxymethyl)phenyl)pyridin-2-yl)ethyl)carbamoyl)-2-methylbenzenesulfonamide, TFA]	100 to 1000 nM	> 100000 nM	–	–	–
